Read-outs that look alike come from different tables or passages of the source.
Assays:
[1] = biological target: T1, CB1 receptor (Rattus norvegicus, UniProt P20272); test: CB1 receptor binding, [3H]HU-243 displacement, synaptosomal membranes; set-up: species or system Sabra rats
T1 construct: synaptosomal membranes were prepared from the brains of Sabra rats by homogenization and gradient centrifugation; from tissue; host or cells: brain of Sabra rats, synaptosomal membranes
Protocol: For CB1 receptor binding, synaptosomal membranes were prepared from the brains of Sabra rats by homogenization and gradient centrifugation (Devane et al, 1992). For CB2 receptor binding assay, COS-7 cells were transfected with plasmids containing CB2 cDNA, and crude membranes were prepared (Munro et al, 1993).
Bound and free radioligands were separated by centrifugation. The data were normalized to 100% of specific binding, which was determined with 50 nM unlabeled HU-243.

[2] = test system: Osteoblastic MC3T3 E1 cells; test: Stimulation of MC3T3 E1 osteoblastic cell number; format: cell-based; details: for ligand concentration that doubled cell number: MC3T3 E1 cells, last 46 hours in culture, DMSO solution
Protocol: Osteoblastic MC3T3 E1 cells were cultured as reported in Miguel et al, 2005. […] Control cultures were treated only with the DMSO solvent (Ofek et al, 2006).

[3] = test system: OVX mouse model; test: Rescue of ovariectomy (OVX)-induced trabecular bone loss, μCT of L3 vertebrae; format: in vivo
Excerpt: Data are mean±S.E. obtained in 6 mice per condition. (*) p<0.05.
Using this experimental system for testing bone anabolic activity, OVXed mice are left untreated to allow for bone loss to occur, followed by a treatment period intended for reversal of the bone loss (Alexander et al, 2001).

[4] = biological target: T1, CB1 receptor; details: cited from earlier work
[5] = biological target: T2, CB2 receptor (Homo sapiens, UniProt P34972); details: Hanus et al.; cited from earlier work
T2 construct: expressed in transfected cells; host or cells: COS-7 cells
T2 sequence (P34972 whole entry): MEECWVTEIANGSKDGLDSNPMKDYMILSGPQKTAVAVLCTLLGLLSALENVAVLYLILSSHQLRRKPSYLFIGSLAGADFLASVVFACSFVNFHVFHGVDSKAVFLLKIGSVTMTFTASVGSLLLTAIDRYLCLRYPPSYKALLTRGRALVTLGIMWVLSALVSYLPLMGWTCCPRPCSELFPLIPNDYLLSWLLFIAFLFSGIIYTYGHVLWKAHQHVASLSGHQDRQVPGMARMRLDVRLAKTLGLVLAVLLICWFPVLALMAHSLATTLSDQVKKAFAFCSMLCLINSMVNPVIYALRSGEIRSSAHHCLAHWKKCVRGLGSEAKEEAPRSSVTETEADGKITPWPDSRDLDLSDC

[6] = test system: osteoblastogenesis / osteoclastogenesis; details: cited from earlier work
[7] = test system: mice; details: cited from earlier work

T1 sequence (P20272 whole entry): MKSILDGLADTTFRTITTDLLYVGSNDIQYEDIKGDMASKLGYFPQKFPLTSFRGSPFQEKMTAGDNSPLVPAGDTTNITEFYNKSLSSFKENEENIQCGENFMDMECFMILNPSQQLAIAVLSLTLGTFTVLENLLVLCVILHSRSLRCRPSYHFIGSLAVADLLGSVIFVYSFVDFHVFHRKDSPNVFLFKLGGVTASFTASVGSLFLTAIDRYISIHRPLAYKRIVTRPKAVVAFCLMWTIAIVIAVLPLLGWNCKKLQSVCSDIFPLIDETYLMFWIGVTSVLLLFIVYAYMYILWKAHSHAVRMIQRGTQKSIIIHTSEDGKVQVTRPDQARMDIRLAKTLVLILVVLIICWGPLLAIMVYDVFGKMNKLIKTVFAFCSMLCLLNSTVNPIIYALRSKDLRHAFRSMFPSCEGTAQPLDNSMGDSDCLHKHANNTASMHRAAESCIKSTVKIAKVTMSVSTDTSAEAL

CCCCCCC(C)(C)c1cc(OC)c([C@@H]2C=C(CO)C3CC2C3(C)C)c(OC)c1 (single isomer, unassigned; (-)) [HU-433, (−)-2-(3-myrtenyl)-5-dimethylheptyl resorcinol]
Ki [1]: > 20 µM
binding to CB1 receptor ([1]; present example): did not bind to CB1 receptor
in vitro skeletal activity compared to HU-308 ([2]; MC3T3 E1 cell number assay): 1000 fold
ligand concentration that doubled cell number [2]: 10^−11 M
rescue of OVX-induced trabecular bone loss ([3]; 0.2 mg/Kg/day intraperitoneal for 6 weeks, starting 6 weeks after OVX, L3 vertebrae μCT): significantly rescued almost the entire OVX-induced trabecular bone loss
effect compared with reversal of bone volumetric density by parathyroid hormone (1-34) ([3]; comparison with Alexander et al, 2001): substantially greater

CCCCCCC(C)(C)c1cc(OC)c([C@@H]2C=C(CO)[C@@H]3C[C@H]2C3(C)C)c(OC)c1 [HU-308]
ligand concentration that doubled cell number [2]: 10^−8 M
reversal of OVX-induced trabecular bone loss ([3]; 20 mg/Kg/day intraperitoneal for 6 weeks, starting 6 weeks after OVX, L3 vertebrae μCT): 50%
binding to CB1 receptor ([4]; Hanus et al.): did not bind to CB1 receptor
Ki ([4]; read-out: Ki CB1, HU-308, from Hanus et al, 1999): > 10 µM
binding to CB2 receptor [5]: potent binding to CB2 receptor
in vitro osteoblastogenesis [6]: stimulates
in vitro osteoclastogenesis [6]: inhibits
OVX-induced bone loss ([7]; another mouse model, Bab et al, 2008): rescues
bone formation ([7]; mice, Ofek et al, 2006): stimulates bone formation
bone resorption ([7]; mice, Ofek et al, 2006): inhibits bone resorption
ovariectomy (OVX)-induced bone loss ([7]; mice, Ofek et al, 2006): attenuating

CCCCCCC(C)(C)c1cc(O)c2c(c1)OC(C)(C)[C@@H]1CC[C@@H](CO)C[C@@H]21 [[^3H]HU-243]
Kd ([4]; radioligand probe, read-out: dissociation constant for the CB1 receptor): 0.045 ± 0.007 nM

From US9428431B2, “Compositions comprising CB receptor agonists, uses thereof and methods for their preparation” (Yissum Research Development Company of the Hebrew …, priority 2008, dated 2016)
